Experimental data published in patent US6727237B2, “Inhibitors of bacterial NAD synthetase” (priority 1998, dated 2004).
Like-named read-outs stand apart in the source and are kept apart here.

Legend:
B. subtilis = assay: Dose response of bacterial growth inhibition, MIC85; settings: Bacillus subtilis, read-out: MIC85
[1] = target: T1, bacterial NAD synthetase enzyme (Bacillus subtilis, UniProt P08164); assay: biochemical; type: biochemical; settings: for Km: 0.2 mL Assay (microtiter plate), substrate
T1 sequence (P08164 2-272 limits assumed): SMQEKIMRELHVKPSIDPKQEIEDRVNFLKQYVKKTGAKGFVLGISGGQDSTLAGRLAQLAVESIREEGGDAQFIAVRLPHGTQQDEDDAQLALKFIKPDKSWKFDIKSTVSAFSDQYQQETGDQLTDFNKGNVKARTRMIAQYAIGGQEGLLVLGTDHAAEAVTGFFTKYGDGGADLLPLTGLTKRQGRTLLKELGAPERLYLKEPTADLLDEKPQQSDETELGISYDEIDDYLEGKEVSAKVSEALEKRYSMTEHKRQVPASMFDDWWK

[2] = tested on: Staphylococcus epidermitis; assay: Bacterial growth inhibition screen in LB media (absorbance 595 nm), percent inhibition; settings: for % Inhibition: S. epidermitis; for inhibition of growth at 10 µM / inhibition of growth at 100 µM: Staphylococcus, read-out: % Inhibition, S. epidermitis
[3] = tested on: Streptococcus pneumonia D39; assay: Standard antibiotic paper disk assay, zone of inhibition; type: cell-based, Streptococcus pneumoniae; settings: 250 μg on 6 or 7 mm paper disk; blood agar plate; gram +
Protocol: (§1) To determine initially if a compound found active in the assays, Compound 864, was also an effective inhibitor of a variety of different bacteria, a standard antibiotic assay was performed. In this assay 250 μg of Compound 864 ([…] in DMSO) was spotted on 6 or 7 mm paper disks. Each disk was placed on separate 30 ml solid-medium plates layered with bacteria Blood agar plates were used for Streptococcus, and minimal-glucose plates were used for the other microorganisms in Table 306. DMSO controls provided negative results.

[4] = tested on: Escherichia coli K-12 MG1655 (CGSC#6300); assay: as above; type: cell-based; settings: 250 μg on 6 or 7 mm paper disk; minimal-glucose plate; gram −
Protocol: as §1

[5] = tested on: Salmonella typhimurium LT2 TT366; assay: as above; type: cell-based; settings: 250 μg on 6 or 7 mm paper disk; minimal-glucose plate; gram −
Protocol: as §1

[6] = tested on: Escherichia coli K-12 W3110 (CGSC#4474); assay: as above; type: cell-based; settings: 250 μg on 6 or 7 mm paper disk; minimal-glucose plate; gram −
Protocol: as §1

[7] = tested on: Streptococcus pneumoniae WU2; assay: as above; type: cell-based; settings: 250 μg on 6 or 7 mm paper disk; blood agar plate; gram +
Protocol: as §1

Bacillus subtilis A700 = assay: as above; type: cell-based; settings: 250 μg on 6 or 7 mm paper disk; minimal-glucose plate; gram +
Protocol: as §1

[8] = tested on: K562 human myeloid cell line; assay: In vitro toxicity in human cells, propidium iodide flow cytometry, minimum toxic concentration
Protocol: The final concentration of DMSO was less than 5%, and a DMSO control was included. The mixtures were incubated at doubling dilutions (approximately 1000 μM-10 μM range) of inhibitor for 15 hours at 37° C. At this time propidium iodide was added (1 μg/mL) and the mixture incubated at 30 min. at 4° C. The cells were washed once with medium, centrifuged, and resuspended in 2% bovine serum albumin/phosphate-buffered saline. The cell suspension was then run through a FAC Saliber flow cytometer and approximately 5000 cells were counted. The proportion of dead (stained) cells was determined, and the percent of live cells was expressed as % controls.

[9] = tested on: Staphylococcus epidermitis; assay: Dose response of bacterial growth inhibition, MIC85; settings: Staphylococcus, read-out: MIC85
[10] = target: T1, bacterial NAD synthetase enzyme; settings: 2 mL Assay (cuvette); substrate; double reciprocal plots
[11] = substrate: Nc1ncnc2c1ncn2[C@@H]1O[C@H](COP(=O)(O)OP(=O)(O)OP(=O)(O)O)[C@@H](O)[C@H]1O; assay: purified protein, by the assay type; settings: substrate, pH 8.5
[12] = compound at 0.2 mM (Table 312A)
[13] = K562 human myeloid cells, 15 hours at 37° C., propidium iodide
[14] = lead compounds (Table 318A), read-out: IC 50
[15] = other: 2 mL Assay (cuvette), double reciprocal plots

Molecule: COC(=O)c1cc2ccccc2n1CCCCCCCCOC(=O)Cc1ccc([N+](C)(C)C)cc1 [Compound 985]
- MIC (B. subtilis): 10 µM
- IC50 [1]: 15 µM
- inhibition at 50 µM [1]: 92.1%

Molecule: C[n+]1cccc(C(=O)OCCCCCn2ccc3cc([N+](=O)[O-])ccc32)c1 [Compound 864]
- % Inhibition ([2]; concentration screened 100 uM): 87.03%
- ZONE OF INHIBITION [3]: 12 mm
- ZONE OF INHIBITION [4]: 9.5 mm
- ZONE OF INHIBITION [5]: 10 mm
- ZONE OF INHIBITION [6]: 9.5 mm
- ZONE OF INHIBITION [7]: 15 mm
- ZONE OF INHIBITION (Bacillus subtilis A700): 19.5 mm
- % Inhibition [1, 12]: 19.33%

Molecule: CC(=O)c1ccc2[nH]c(CCCCCCCCOC(=O)Cc3ccc[n+](C)c3)cc2c1 [Compound 939]
- Minimum Toxic Dose ([8]; human, 15 h): 500 µM
- IC50 [1]: 25 µM
- inhibition at 250 µM [1]: 97.8%

Molecule: COC(=O)C=Cc1cn(CCCCCCCCC[n+]2cccc(C(=O)OC)c2)c2ccccc12 [Compound 270]
- inhibition of growth at 10 µM ([2]; concentration screened 10 uM): 97.5%
- Minimum Toxic Dose ([8]; human, 15 h): 200 µM
- IC50 [1]: 60 µM
- MIC [9]: 10 µM

Molecule: [Mg+2] [Mg^+2, magnesium]
- Km [1]: 2900 µM
- Km [10]: 2600 µM
- Vmax [10]: 120 nM/s

Molecule: COC(=O)c1cc2cc(OCc3ccccc3)ccc2n1CCCCCCCCOC(=O)c1ccc[n+](C)c1 [Compound 977]
- MIC (B. subtilis): 10 µM
- IC50 [1]: 10 µM
- inhibition at 100 µM [1]: 87.6%

Molecule: COC(=O)c1cc2cc(OCc3ccccc3)ccc2n1CCCCCCCCC[n+]1ccccc1 [Compound 230]
- inhibition of growth at 100 µM ([2]; concentration screened 100 uM): 95.5%
- MIC (B. subtilis): 10 µM
- inhibition at 100 µM [1]: 93.1%
- MIC [9]: 3 µM

Molecule: COC(=O)c1cc2ccccc2n1CCCCCCCCOC(=O)c1cccnc1 [Compound 949]
- Minimum Toxic Dose [8, 13]: 200 µM

Molecule: COC(=O)c1cc2ccccc2n1CCCCCCCCCOC(=O)Cc1ccc([N+](C)(C)C)cc1 [Compound 986]
- MIC (B. subtilis): 10 µM
- inhibition at 50 µM [1]: 30.8%
- IC50 [1, 14]: 10 µM

Molecule: C[N+](C)(C)c1ccc(CC(=O)OCCCCCCCCn2ccc3cc(OCc4ccccc4)ccc32)cc1 [Compound 749]
- inhibition of growth at 100 µM ([2]; concentration screened 100 uM): 98.7%
- MIC (B. subtilis): 3 µM
- IC50 [1]: 25 µM
- inhibition at 100 µM [1]: 98.2%
- MIC [9]: 10 µM

Molecule: COC(=O)c1cc2cc(OCc3ccccc3)ccc2n1CCCCCCCCOC(=O)c1cccnc1 [Compound 953]
- Minimum Toxic Dose [8, 13]: 100 µM

Molecule: Fc1cc(F)c2[nH]c(CCCC[n+]3cccc4ccccc43)cc2c1 [Compound 409]
- % Inhibition ([2]; concentration screened 10 uM): 2.44%
- Minimum Toxic Dose [8, 13]: 200 µM
- % Inhibition [1, 12]: 19.02%

Molecule: O=C(O)C=Cc1cn(CCCCCCCCC[n+]2cccc(C(=O)[O-])c2)c2ccccc12 [Compound 274]
- Minimum Toxic Dose [8, 13]: 300 µM

Molecule: COC(=O)c1cc2cc(OCc3ccccc3)ccc2n1CCCCCCCOC(=O)Cc1ccc([N+](C)(C)C)cc1 [Compound 988]
- MIC (B. subtilis): 10 µM
- inhibition at 100 µM [1]: 84.3%

Molecule: COC(=O)c1cc2cc(OCc3ccccc3)ccc2n1CCCCCCOC(=O)c1cccnc1 [Compound 951]
- Minimum Toxic Dose [8, 13]: 500 µM

Molecule: N [NH3, ammonia]
- Km [10]: 2880 µM
- Vmax [10]: 137 nM/s

Molecule: COC(=O)c1cc2ccccc2n1CCCCCCCOC(=O)Cc1ccc([N+](C)(C)C)cc1 [Compound 984]
- MIC (B. subtilis): 30 µM
- IC50 [1]: 20 µM
- inhibition at 50 µM [1]: 87.5%

Molecule: COC(=O)c1cc2ccccc2n1CCCCCCCOC(=O)c1cccnc1 [Compound 948]
- Minimum Toxic Dose [8, 13]: 200 µM
- % Inhibition ([1]; compound at 0.05 mM): 2.52%

Molecule: COC(=O)c1cc2ccccc2n1CCCCCCOC(=O)c1cccnc1 [Compound 947]
- Minimum Toxic Dose [8, 13]: 200 µM

Molecule: Nc1ncnc2c1ncn2[C@@H]1O[C@H](COP(=O)(O)OP(=O)(O)OC[C@H]2O[C@@H]([n+]3cccc(C(=O)O)c3)[C@H](O)[C@@H]2O)[C@@H](O)[C@H]1O [NaAD, nictonic acid dinucleotide, reference compound]
- Km [1]: 76 µM
- Km [10]: 75 µM
- Vmax [10]: 286 nM/s

Molecule: C[n+]1cccc(C(=O)OCCCCCCCCn2ccc3cc(OCc4ccccc4)ccc32)c1 [Compound 769]
- inhibition of growth at 100 µM ([2]; concentration screened 100 uM): 95.9%
- MIC (B. subtilis): 3 µM
- inhibition at 100 µM [1]: 98.3%
- IC50 [1, 14]: 20 µM
- MIC [9]: 10 µM

Molecule: COC(=O)c1cc2cc(OCc3ccccc3)ccc2n1CCCCCCCCCOC(=O)Cc1ccc([N+](C)(C)C)cc1 [Compound 990]
- MIC (B. subtilis): 10 µM
- IC50 [1]: 20 µM
- inhibition at 200 µM [1]: 92.2%

Molecule: COC(=O)c1ccc2c(ccn2CCCCCCCCC[n+]2cc(C(=O)OC)cc3ccccc32)c1 [Compound 174]
- inhibition of growth at 10 µM ([2]; concentration screened 10 uM): 98.7%
- IC50 [1]: 40 µM
- MIC [9]: 10 µM

Molecule: COC(=O)c1cc2cc(OCc3ccccc3)ccc2n1CCCCCCCOC(=O)c1ccc[n+](C)c1 [Compound 976]
- MIC (B. subtilis): 10 µM
- IC50 [1]: 20 µM
- inhibition at 100 µM [1]: 71%

B1: bacterial NAD synthetase enzyme (Bacillus subtilis subsp. subtilis str. 168) (protein)
chain: SMQEKIMRELHVKPSIDPKQEIEDRVNFLKQYVKKTGAKGFVLGISGGQDSTLAGRLAQLAVESIREEGGDAQFIAVRLPHGTQQDEDDAQLALKFIKPDKSWKFDIKSTVSAFSDQYQQETGDQLTDFNKGNVKARTRMIAQYAIGGQEGLLVLGTDHAAEAVTGFFTKYGDGGADLLPLTGLTKRQGRTLLKELGAPERLYLKEPTADLLDEKPQQSDETELGISYDEIDDYLEGKEVSAKVSEALEKRYSMTEHKRQVPASMFDDWWK
- Km ([11]; other: 0.2 mL Assay (microtiter plate)): 152 µM
- Km [11, 15]: 120 µM
- Vmax [11, 15]: 436 nM/s
